# In patent US20230111310A1, “CARBOXYLIC ACID DERIVATIVE-SUBSTITUTED IMINO ARYL COMPOUND, PREPARATION METHOD THEREFOR, HERBICIDAL COMPOSITION AND USE THEREOF” (Qingdao Kingagroot Chemical Compound Co., Ltd., priority 2020, published 2023):
# Key:
# Assay in all cases: Weeding effect in post-emergence stage
# Assay type in all cases: in vivo
# Echinochloa crusgalli = conditions: for Weeding effect in post-emergence stage, Echinochloa crusgalli (level): fresh weight control rate level; for Weeding effect in post-emergence stage, Echinochloa crusgalli: level of fresh weight growth control rate
# Summary of the method: (§1)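 Pot-grown greenhouse plants sprayed at 2–3 leaf stage, 2 weeks after sowing, with compound in acetone/Tween 80 plus methyl oleate emulsifiable concentrate (1.5 liter/ha) at 500–7.5 g/ha. Growth control rated 3 weeks after treatment; mean of three replicates.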
# Eleusine indica = conditions: for Weeding effect in post-emergence stage, Eleusine indica (level): fresh weight control rate level; for Weeding effect in post-emergence stage, Eleusine indica: level of fresh weight growth control rate
# Summary of the method: as §1
# Alopecurus japonicus = conditions: for Weeding effect in post-emergence stage, Alopecurus japonicus (level): fresh weight control rate level; for Weeding effect in post-emergence stage, Alopecurus japonicus: level of fresh weight growth control rate
# Summary of the method: as §1
# Digitaria sanguinalis = conditions: for Weeding effect in post-emergence stage, Digitaria sanguinalis (level): fresh weight control rate level; for Weeding effect in post-emergence stage, Digitaria sanguinalis: level of fresh weight growth control rate
# Summary of the method: as §1
# Setaria viridis = conditions: for Weeding effect in post-emergence stage, Setaria viridis (level): fresh weight control rate level; for Weeding effect in post-emergence stage, Setaria viridis: level of fresh weight growth control rate
# Summary of the method: as §1
# Abutilon theophrasti = conditions: for Weeding effect in post-emergence stage, Abutilon theophrasti (level): fresh weight control rate level; for Weeding effect in post-emergence stage, Abutilon theophrasti: level of fresh weight growth control rate
# Summary of the method: as §1
SMILES,"Weeding effect in post-emergence stage, Echinochloa crusgalli (level) (Echinochloa crusgalli; Dose 15 g/ha)","Weeding effect in post-emergence stage, Eleusine indica (level) (Eleusine indica; Dose 15 g/ha)","Weeding effect in post-emergence stage, Alopecurus japonicus (level) (Alopecurus japonicus; Dose 15 g/ha)","Weeding effect in post-emergence stage, Digitaria sanguinalis (level) (Digitaria sanguinalis; Dose 15 g/ha)","Weeding effect in post-emergence stage, Setaria viridis (level) (Setaria viridis; Dose 15 g/ha)","Weeding effect in post-emergence stage, Abutilon theophrasti (level) (Abutilon theophrasti; Dose 15 g/ha)","Weeding effect in post-emergence stage, Echinochloa crusgalli (Echinochloa crusgalli; Dose 15 g/ha)","Weeding effect in post-emergence stage, Eleusine indica (Eleusine indica; Dose 15 g/ha)","Weeding effect in post-emergence stage, Alopecurus japonicus (Alopecurus japonicus; Dose 15 g/ha)","Weeding effect in post-emergence stage, Digitaria sanguinalis (Digitaria sanguinalis; Dose 15 g/ha)","Weeding effect in post-emergence stage, Setaria viridis (Setaria viridis; Dose 15 g/ha)","Weeding effect in post-emergence stage, Abutilon theophrasti (Abutilon theophrasti; Dose 15 g/ha)",also measured
CCSC(=O)C(C)O/N=C/c1cc(-n2c(=O)n(C)c(=O)n(C)c2=O)c(F)cc1Cl (stereo not drawn) [Compound 491],5 (Level 5: growth control rate is above 85%),5 (Level 5: growth control rate is above 85%),5 (Level 5: growth control rate is above 85%),5 (Level 5: growth control rate is above 85%),5 (Level 5: growth control rate is above 85%),5 (Level 5: growth control rate is above 85%),–,–,–,–,–,–,–
CC(O/N=C/c1cc(-n2c(=O)cc(C(F)(F)F)n(C)c2=O)c(F)cc1Cl)C(=O)OCCC1OCCO1 (stereo not drawn) [Compound 498],5 (Level 5: growth control rate is above 85%),5 (Level 5: growth control rate is above 85%),5 (Level 5: growth control rate is above 85%),5 (Level 5: growth control rate is above 85%),5 (Level 5: growth control rate is above 85%),5 (Level 5: growth control rate is above 85%),–,–,–,–,–,–,–
CCOC(=O)C(C)O/N=C/c1cc(-n2c(=O)n(C)c(=S)n(C)c2=O)c(F)cc1Cl (racemic) [Compound 2],–,–,–,–,–,–,5 (Level 5: growth control rate is above 85%),5 (Level 5: growth control rate is above 85%),5 (Level 5: growth control rate is above 85%),5 (Level 5: growth control rate is above 85%),5 (Level 5: growth control rate is above 85%),5 (Level 5: growth control rate is above 85%),–
COC(=O)[C@@H](C)O/N=C/c1cc(-n2c(=O)n(C)c(=S)n(C)c2=S)c(F)cc1Cl [124(R)],–,–,–,–,–,–,5 (Level 5: growth control rate is above 85%),5 (Level 5: growth control rate is above 85%),5 (Level 5: growth control rate is above 85%),5 (Level 5: growth control rate is above 85%),5 (Level 5: growth control rate is above 85%),5 (Level 5: growth control rate is above 85%),–
CCOC(=O)[C@@H](C)O/N=C/c1cc(-n2c(=O)n(C)c(=S)n(C)c2=O)c(F)cc1C#N [88(R)],–,–,–,–,–,–,5 (Level 5: growth control rate is above 85%),5 (Level 5: growth control rate is above 85%),5 (Level 5: growth control rate is above 85%),5 (Level 5: growth control rate is above 85%),5 (Level 5: growth control rate is above 85%),5 (Level 5: growth control rate is above 85%),–
COC(=O)C(C)O/N=C/c1cc(-n2c(=O)cc(C(F)(F)F)n(C)c2=S)c(F)cc1Br (racemic) [Compound 394],–,–,–,–,–,–,–,–,–,–,–,–,"Weeding effect in post-emergence stage, Echinochloa crusgalli (level) (Echinochloa crusgalli; Dose 60 g/ha): 5 (Level 5: growth control rate is above 85%); Weeding effect in post-emergence stage, Eleusine indica (level) (Eleusine indica; Dose 60 g/ha): 5 (Level 5: growth control rate is above 85%); Weeding effect in post-emergence stage, Alopecurus japonicus (level) (Alopecurus japonicus; Dose 60 g/ha): 5 (Level 5: growth control rate is above 85%); Weeding effect in post-emergence stage, Digitaria sanguinalis (level) (Digitaria sanguinalis; Dose 60 g/ha): 5 (Level 5: growth control rate is above 85%); Weeding effect in post-emergence stage, Setaria viridis (level) (Setaria viridis; Dose 60 g/ha): 5 (Level 5: growth control rate is above 85%); Weeding effect in post-emergence stage, Abutilon theophrasti (level) (Abutilon theophrasti; Dose 60 g/ha): 5 (Level 5: growth control rate is above 85%)"
COC(=O)C(OC)OC(=O)[C@@H](C)O/N=C/c1cc(-n2c(=O)cc(C(F)(F)F)n(C)c2=O)c(F)cc1Cl (stereo partly drawn) [245(R)],–,–,–,–,–,–,–,–,–,–,–,–,"Weeding effect in post-emergence stage, Echinochloa crusgalli (Echinochloa crusgalli; Dose 30 g/ha): 5 (Level 5: growth control rate is above 85%); Weeding effect in post-emergence stage, Eleusine indica (Eleusine indica; Dose 30 g/ha): 5 (Level 5: growth control rate is above 85%); Weeding effect in post-emergence stage, Alopecurus japonicus (Alopecurus japonicus; Dose 30 g/ha): 5 (Level 5: growth control rate is above 85%); Weeding effect in post-emergence stage, Digitaria sanguinalis (Digitaria sanguinalis; Dose 30 g/ha): 5 (Level 5: growth control rate is above 85%); Weeding effect in post-emergence stage, Setaria viridis (Setaria viridis; Dose 30 g/ha): 5 (Level 5: growth control rate is above 85%); Weeding effect in post-emergence stage, Abutilon theophrasti (Abutilon theophrasti; Dose 30 g/ha): 5 (Level 5: growth control rate is above 85%)"
COC(=O)C(C)O/N=C/c1cc(-n2c(=O)c(C)c(C(F)(F)F)n(C)c2=O)c(F)cc1Cl (racemic) [Compound 473],–,–,–,–,–,–,–,–,–,–,–,–,"Weeding effect in post-emergence stage, Echinochloa crusgalli (level) (Echinochloa crusgalli; Dose 30 g/ha): 5 (Level 5: growth control rate is above 85%); Weeding effect in post-emergence stage, Eleusine indica (level) (Eleusine indica; Dose 30 g/ha): 5 (Level 5: growth control rate is above 85%); Weeding effect in post-emergence stage, Alopecurus japonicus (level) (Alopecurus japonicus; Dose 30 g/ha): 5 (Level 5: growth control rate is above 85%); Weeding effect in post-emergence stage, Digitaria sanguinalis (level) (Digitaria sanguinalis; Dose 30 g/ha): 5 (Level 5: growth control rate is above 85%); Weeding effect in post-emergence stage, Setaria viridis (level) (Setaria viridis; Dose 30 g/ha): 5 (Level 5: growth control rate is above 85%); Weeding effect in post-emergence stage, Abutilon theophrasti (level) (Abutilon theophrasti; Dose 30 g/ha): 5 (Level 5: growth control rate is above 85%)"
COCC(O/N=C/c1cc(-n2c(=O)n(C)c(=S)n(C)c2=O)c(F)cc1Cl)C(=O)OC (stereo not drawn) [Compound 80],–,–,–,–,–,–,5 (Level 5: growth control rate is above 85%),5 (Level 5: growth control rate is above 85%),5 (Level 5: growth control rate is above 85%),5 (Level 5: growth control rate is above 85%),5 (Level 5: growth control rate is above 85%),5 (Level 5: growth control rate is above 85%),–
COC(=O)[C@@H](C)O/N=C/c1cc(-n2c(=O)cc(C(F)(F)F)n(C)c2=S)c(F)cc1Br [394(R)],–,–,–,–,–,–,–,–,–,–,–,–,"Weeding effect in post-emergence stage, Echinochloa crusgalli (level) (Echinochloa crusgalli; Dose 60 g/ha): 5 (Level 5: growth control rate is above 85%); Weeding effect in post-emergence stage, Eleusine indica (level) (Eleusine indica; Dose 60 g/ha): 5 (Level 5: growth control rate is above 85%); Weeding effect in post-emergence stage, Alopecurus japonicus (level) (Alopecurus japonicus; Dose 60 g/ha): 5 (Level 5: growth control rate is above 85%); Weeding effect in post-emergence stage, Digitaria sanguinalis (level) (Digitaria sanguinalis; Dose 60 g/ha): 5 (Level 5: growth control rate is above 85%); Weeding effect in post-emergence stage, Setaria viridis (level) (Setaria viridis; Dose 60 g/ha): 5 (Level 5: growth control rate is above 85%); Weeding effect in post-emergence stage, Abutilon theophrasti (level) (Abutilon theophrasti; Dose 60 g/ha): 5 (Level 5: growth control rate is above 85%)"
CC(O/N=C/c1cc(-n2c(=O)cc(C(F)(F)F)n(C)c2=O)c(F)cc1Cl)C(N)=O (stereo not drawn) [Compound 499],5 (Level 5: growth control rate is above 85%),5 (Level 5: growth control rate is above 85%),5 (Level 5: growth control rate is above 85%),5 (Level 5: growth control rate is above 85%),5 (Level 5: growth control rate is above 85%),5 (Level 5: growth control rate is above 85%),–,–,–,–,–,–,–
CSCCOC(=O)[C@@H](C)O/N=C/c1cc(-n2c(=O)cc(C(F)(F)F)n(C)c2=O)c(F)cc1Cl [234(R)],–,–,–,–,–,–,5 (Level 5: growth control rate is above 85%),5 (Level 5: growth control rate is above 85%),5 (Level 5: growth control rate is above 85%),5 (Level 5: growth control rate is above 85%),5 (Level 5: growth control rate is above 85%),5 (Level 5: growth control rate is above 85%),–
COC/C(C)=N/OC(=O)C(C)O/N=C/c1cc(-n2c(=O)cc(C(F)(F)F)n(C)c2=O)c(F)cc1Cl (stereo not drawn) [Compound 253],–,–,–,–,–,–,5 (Level 5: growth control rate is above 85%),5 (Level 5: growth control rate is above 85%),5 (Level 5: growth control rate is above 85%),5 (Level 5: growth control rate is above 85%),5 (Level 5: growth control rate is above 85%),5 (Level 5: growth control rate is above 85%),–
CC(=NOC(=O)C(C)ON=Cc1cc(-n2c(=O)cc(C(F)(F)F)n(C)c2=O)c(F)cc1Cl)C(C)(C)C (stereo not drawn) [Compound 449],5 (Level 5: growth control rate is above 85%),5 (Level 5: growth control rate is above 85%),5 (Level 5: growth control rate is above 85%),5 (Level 5: growth control rate is above 85%),5 (Level 5: growth control rate is above 85%),5 (Level 5: growth control rate is above 85%),–,–,–,–,–,–,–
CC(C#N)OC(=O)[C@@H](C)O/N=C/c1cc(-n2c(=O)cc(C(F)(F)F)n(C)c2=O)c(F)cc1Cl (stereo partly drawn) [443(R)],5 (Level 5: growth control rate is above 85%),5 (Level 5: growth control rate is above 85%),5 (Level 5: growth control rate is above 85%),5 (Level 5: growth control rate is above 85%),5 (Level 5: growth control rate is above 85%),5 (Level 5: growth control rate is above 85%),–,–,–,–,–,–,–
